{"source": "patent US9687467B2", "about": "“Diagnosis and treatment of taxane-resistant cancers” (Children's Medical Center Corporation, priority 2011, dated 2017)", "key": {"T28.2 xenografts": {"system": "T28.2 xenografts", "experiment": "Retransplantation xenograft, paclitaxel-sensitive control clone", "assay_type": "in vivo, nude mice", "description": "FIGS. 6A-6C are a series of graphs showing data that validate the A549 in vivo paclitaxel resistance model. (FIG. 6A) Tumor cell lines established after an initial round of inoculation and treatment with either vehicle (T28.2) or 15 mg/kg paclitaxel (T20.2) were harvested during log-phase growth and reinjected subcutaneously into the flanks of nude mice. When the average tumor volume was ˜120 mm^3, vehicle (open circles or squares) or 15 mg/kg paclitaxel (closed circles or squares) was administered intraperitoneally every other day. Treatment was continued until tumors reached approximately four times their initial volume. Each curve represents the average tumor growth±s.e.m. for 10 mice per group. […] Each bar represents the average tumor growth±s.e.m. for 10 mice per group. NS: not significant, *P<0.05 as determined by Wilcoxon's rank sum test. (FIG. 6C) Tumors were harvested, cultured in vitro and cell viability was assessed using the MTT assay. Values are presented as percentage of cell survival in paclitaxel-treated cells relative to untreated cells. White bars represent LC50s from tumor cell lines established from T28.2 tumors treated with vehicle. Black bars represent LC50s from cell lines established from T20.2 tumors treated with paclitaxel. Shown are the mean±s.e.m. of two independent experiments, each performed in triplicate. *P<0.05 as determined by Wilcoxon's rank sum test. […]"}, "MES-SA cells": {"system": "MES-SA cells", "experiment": "MTT cell viability assay, paclitaxel response", "assay_type": "cell-based, human", "conditions": "100 nM paclitaxel for 72 h", "description": "The paclitaxel-resistant cell lines MES-SA^DX5 and A549^TR were transfected with a scrambled non-targeting miRNA (control) and an miR-135a mimic (mimic), respectively. Cells were subsequently treated with 100 nM paclitaxel and cell viability was assessed using the MTT assay (FIGS. 2A, 2B). The percentage of apoptotic cells was assessed by Annexin V-staining and FACS analysis (FIGS. 2C, 2D). Values are presented as percent cell survival in paclitaxel-treated cells relative to untreated cells. *P<0.05, **P<0.001 as determined by Wilcoxon's rank sum test.\nFIGS. 4A-4E are a series of micrographs and line graphs showing that miR-135a-mediated APC suppression contributes to paclitaxel resistance. MES-SA and A549 cells were mock-transfected (mock), transfected with a scrambled siRNA (siControl) or with siRNA directed against APC (siAPC). […] Transfected A549 (FIG. 4B) and MES-SA (FIG. 4C) cells were treated with paclitaxel and viability was assessed using the MTT assay. […] (FIG. 4E) Both A549-shCON and -shAPC cells were treated with paclitaxel and cell viability was measured using the MTT assay. […]\nCell growth inhibition was determined by a 3-(4,5-dimethylthiazol-2-yl)-2,5-diphenyltetrazolium (MTT) bromide assay. […] Absorbance was determined using a 96-well SpectraMax plate reader (Molecular Devices, Sunnyvale, Calif.) at 560 nm and 650 nm (background). […]"}, "A549 xenografts": {"system": "A549 xenografts", "experiment": "A549 xenograft mouse model, paclitaxel treatment", "assay_type": "in vivo, nude mice", "procedure": "(FIG. 5A) A suspension of A549 cells was injected subcutaneously into the flank of a nude mouse. When the average tumor volume was at least 120 mm^3, vehicle or paclitaxel (15 mg/kg) was administered intraperitoneally every other day. Treatment was continued until tumors reached approximately four times their initial volume. Paclitaxel-refractory, as well as vehicle-treated tumors, were digested with collagenase and cultured in vitro (adapted from Norman E et al. Nature Reviews Drug Discovery 2006; 5: 741-754). (FIG. 5B) Tumor growth was determined as the tumor volume on the day of treatment relative to the tumor volume at the start of treatment and presented as a ratio. Each line represents the growth of an individual tumor (T) in an individual mouse (indicated by a number). Groups of mice are separated into control, paclitaxel-responsive and paclitaxel non-responsive (continuous tumor growth in the presence of paclitaxel) groups. […] (FIG. 5C) Vehicle-treated tumors (hatched bars) or paclitaxel-refractory tumors (black bars) were harvested from mice and used to generate two cell lines per tumor. The indicated cell lines were cultured in vitro and cell viability was assessed 72 h after paclitaxel addition using the MTT assay. Bars represent average LC50±s.e.m. from triplicate experiments.\nNude mice were inoculated with A549 cells. At an average tumor volume of ˜120 mm^3, vehicle control and 10 mg/kg (FIG. 10A) or 12.5 mg/kg (FIG. 10B) paclitaxel was administered i.p. every day. Each curve represents the tumor volume on the day of treatment relative to day 0 per mouse.\nTo further establish the role of miR-135a in paclitaxel response, the A549 xenograft mouse model was adapted from the protocol previously described by Patel et al., 2010. Briefly, nude mice bearing subcutaneous A549 xenografts were injected intraperitoneally with either vehicle or 15 mg/kg paclitaxel until tumors that responded initially began to regrow (FIG. 5A). […] After 120 days of paclitaxel treatment, control and paclitaxel-refractory tumors were harvested. Within two passages in vitro, RNA was harvested for miRNA evaluation and determination of paclitaxel response.\nApproximately 4×10^6 human A549 NSCLC cells were resuspended in 50% Matrigel (BD Biosciences, Bedford, Mass.) and injected subcutaneously into the hind flanks of 8-wk old male athymic (nu/nu) nude mice (Taconic Farms, Inc., Hudson, N.Y.). […] Tumor size was determined by digital caliper measurements (length and width in mm), and tumor volume (mm^3) was estimated using the formula (length×width^2)/2. Effects on tumor growth rate were assessed per mouse by determining the tumor volume on the day of treatment relative to the tumor volume on Day 0. […]"}}, "data": [{"smiles": "CC(=O)O[C@H]1C(=O)[C@@]2(C)[C@H]([C@H](OC(=O)c3ccccc3)[C@]3(O)C[C@H](OC(=O)[C@H](O)[C@@H](NC(=O)c4ccccc4)c4ccccc4)C(C)=C1C3(C)C)[C@]1(OC(C)=O)CO[C@@H]1C[C@@H]2O", "note": "[paclitaxel]", "values": [{"measurement": "tumor growth after paclitaxel treatment", "setting": "T28.2 xenografts; 15 mg/kg paclitaxel i.p.", "value": "shrank substantially"}, {"measurement": "reduction of relative tumor burden at the end of the experiment", "setting": "T28.2 xenografts; 15 mg/kg paclitaxel i.p. vs vehicle, P=0.003", "value": 4.5, "unit": "fold"}, {"measurement": "cell survival", "setting": "MES-SA cells", "value": 21.8, "unit": "%"}, {"measurement": "generation of paclitaxel-refractory tumors", "setting": "A549 xenografts; 10 mg/kg paclitaxel i.p.", "value": "did not generate any paclitaxel-refractory tumors"}, {"measurement": "generation of paclitaxel-refractory tumors", "setting": "A549 xenografts; 12.5 mg/kg paclitaxel i.p.", "value": "did not generate any paclitaxel-refractory tumors"}, {"measurement": "mice with prolonged response", "setting": "A549 xenografts; 15 mg/kg paclitaxel intraperitoneally", "value": "7 out of 10"}, {"measurement": "mice that became paclitaxel-refractory", "setting": "A549 xenografts; 15 mg/kg paclitaxel intraperitoneally, continued treatment", "value": "3 out of 10"}]}]}
